Reference: patent US11730689B2, “Process for treating hair” (Davines S.p.A., priority 2018, dated 2023)

Legend:
[1] = Hair fastness and easy bleaching (Example 7), tensile strength test; set-up: species or system human; conditions: 120 minutes
Experimental: Four swatches of human hair, weight and length level 5, are used.
The swatches are bleached using a mixture of 20 g Davines Mask Hair Bleaching Powder and 40 g Davines Activator 20 vol. to which the following compounds are added:
b) 3.5 g 12% Liposol maleate (Sabinsa Corp.) in water,
c) 3.5 g 12% Olaplex® Bond Multiplier No 1 in water,
During the bleaching process, all the swatches are wrapped up in aluminum foil, and afterward they are left on for 120 minutes at room temperature.
After the left on period, every swatch is rinsed with abundant running water and washed with a Sodium Lauth-2 sulfate (Zetesol Les 2/SL®) 15% water solution and to a pH 7.5, and dried by combing with a large-tooth comb.
The swatches are subsequently washed until a complete removal of the product.
The Tensile Strength Test was made with a dynamometer Texture Analysis Plus (Extended Height) using pneumatic clamps.
The tensile strength of hair treated with different compositions was compared with the tensile strength of the non-bleached virgin swatch (positive reference) and the tensile strength of the swatch treated only with Davines Mask Hair Bleaching Powder without a protective agent (negative reference). Five measurements for each single 6 cm long hair, and at constant rate of 0.5 mm/sec., were made.

[2] = Hair resistance to bleaching treatment (Example 5), tensile strength test; conditions: 9 g (maleic acid, liposol maleate: 20% water solution) added to 20 g bleaching powder + 40 g Activator 40 vol.; 50 minutes; On Protection = 13% maleic acid and 7% Liposol maleate; five measurements, 6 cm hair, 0.5 mm/sec
Experimental: Five swatches of hair, weight and length standard, level 5, are treated with the coloration Davines Mask With Vibrachrom 4.0 mixed with the activator Davines Activator 20 vol., emulsion containing hydrogen peroxide, in a ratio of 1:1.5 as disclosed in the Davines manual and left on at room temperature for 35 minutes in a ratio of 1:1.5 as disclosed in the Davines manual.
During the left on period, the swatches were wrapped up in tinfoil and left at room temperature. After that, the swatches were rinsed with abundant running water and then washed with the Essential Hair Care SOLU shampoo of Davines line, washed and carefully dried with an airdryer.
At the end of the coloring process, the bleaching treatment starts.
Every swatch is decolored with 20 g of the bleaching powder Davines Mask Hair Bleaching Powder mixed with 40 g Davines Activator 40 vol.
Before application on the swatches, the mixtures are singularly added with the following solutions:
9 g Liposol maleate (Sabinsa Corporation)—20% water solution,
9 g Olaplex® Bond Multiplier No 1,
During the bleaching process, all the swatches are wrapped up in tinfoil, and left on for 50 minutes at room temperature.
After the left on period, the swatches are shampooed using Davines Hair Care DEDE shampoo and combed using a large-tooth comb.
A tensile strength test was carried out on all single swatches. […]

[3] = Color fastness to washing (Example 1): evaluation of rinsing waters; set-up: species or system human; conditions: 5 g of 2% water solution, 10 minutes at room temperature; rinsed 5 times with Sodium Laureth-2 Sulfate solution pH 7.5; FIG. 1; six swatches incl. non-treated
Experimental: The coloring formulation was applied in a quantity sufficient to color all the fibers of the swatches, then wrapped in an aluminum foil and left on for 35 minutes.
Afterwards, the swatches were rinsed with Davines SOLU shampoo of the Essential Hair Care line, directly on the previously wet swatches and rinsed for 30 seconds in order to remove the mixture.
Then, swatches are treated as follows:
5 g of 2% liposol maleate (Sabinsa Corporation) water solution,
5 g of 2% Olaplex® Bond Multiplier No 1 water solution.
A non-treated swatch is used as reference.
The specific treatments are left on hair fora period of 10 minutes at room temperature.
After 10 minutes, the swatches are rinsed 5 times with a Sodium Laureth-2 Sulfate (Zetesol Les 2/SL®) solution to pH 7.5. The rinsing procedure consists on providing 1.5 g of the surfactant solution per swatch, putting it on the swatch, and massaging for 10 seconds, then rinsing.
The rinsing treatment is carried out dipping the individual swatch for 10 times in a beaker containing 100 g water, in order to collect the rinsing water.

[4] = Reducing treatment: curl resistance to repeated washings (Example 8); conditions: 1.8 ml added to 100 ml Balance Curling System #1 and to 100 ml Bouclè neutralizer (maleic acid, liposol maleate as 20% solution); 40 washings with 15% Sodium laureth-2 sulfate pH 7.5
Experimental: 1) 100 ml Davines Balance Curling System #1,
3) 100 ml Davines Balance Curling System #1 added with 1.8 ml of a Liposol maleate 20% solution (Sabinsa Corporation),
(§1) 4) 100 ml Davines Balance Curling System #1 added with 1.8 ml of Olaplex® Bond Multiplier No 1,
The above described reducing formulations (2 ml per hair swatch) were applied and left on for 30 minutes.
After the left on period, the swatches were washed with hot running water for one minute and left 10 minutes towel dried on air without any treatment, in order to stabilize the treatment.
Five neutralizing solutions are prepared:
1) 100 ml neutralizing solution Davines Bouclè Biowaving System Extra Delicate Neutralizer hydrogen peroxide 2.1%,
3) 100 ml neutralizing solution Davines Bouclè Biowaving System Extra Delicate Neutralizer added with 1.8 ml of Liposol Maleate 20% water solution (Sabinsa Corporation),
4) 100 ml neutralizing solution Davines Bouclè Biowaving System Extra Delicate Neutralizer added with 1.8 ml Olaplex® Bond Multiplier No 1,
Every swatch is left on for 10 minutes at room temperature.
Directly on the swatches and without rinsing, the neutralizing treatment is repeated in the same way, leaving on for other 10 minutes, for total 20 minutes.
After the left on period, the formulation in excess is rinsed with running water and the curlers are dried with a drier for 30 minutes. […]

[5] = Hair resistance to reducing treatment (Example 12), tensile strength test
Experimental: Five level 5 natural hair swatches, weight and width standard, are washed with Essential Hair Care SOLU shampoo.
Then, the swatches are towel dried with adsorbing paper for removing excess water and subsequently enrolled on 1 cm diameter curlers.
2 ml of Davines Balance Curling System #1 perm are applied on all the curlers using a spout dispenser and left on for 30 minutes.
After that, every curler is rinsed with abundant water for 1 minute using cold running water.
Then, the swatches are neutralized using different neutralizing solutions:
2.5 g Davines Bouclè Biowaving System Extra Delicate Neutralizer (hydrogen peroxide 2.1%),
2.5 g liposol maleate (Sabinsa Corp.) 2% water solution,
2.5 g Olaplex® Bond Multiplier No 1, 10% water solution,
The swatches are left on for 7.30 minutes at room temperature.
Without rinsing, directly on the swatches, the application of the neutralizing solutions is repeated according to the same procedure for other 7.30 minutes, totally 15 minutes.
After the left on period, the excess product is rinsed with cold running water and the curlers are dried in an oven ISCO at 53° C.±1 for 4 hours.
The swatches are removed from the curlers and the curl sinuosity is evaluated using a camera.
(§2) Then, the swatches are carefully washed with a Sodium Laureth-2 sulfate (Zetesol Les 2/SL®) 15% and to a pH of 7.5. […]
Then, the tensile strength was evaluated. […]

[6] = Reducing treatment: hair conditioning (Example 9), evaluation by skilled technicians; set-up: species or system human; conditions: 5 g of 2% water solution (On Protection: 10% in method, 2% in results), 2 x 7.30 minutes after reducing treatment; 5 washings
Experimental: The coloring formulation was applied mixed with Davines Activator 20 vol., hydrogen peroxide emulsion, according to the Davines operating manual, in a 1:1.5 ratio.
The color was carefully applied in a quantity sufficient to color all the fibers of the swatches, then left on for 35 minutes at room temperature.
After that, the swatches were carefully rinsed with SOLU shampoo of the Essential Hair Care Davines line, in order to eliminate the excess color.
5 grams per swatch of the reducing formulation Davines Balance Curling System #1 are applied on the wet and towel dried swatches, and left on for 30 minutes.
After the left on period, the swatches are washed with water and ready to be treated with:
1) 5 g of maleic 2% water solution,
2) 5 g Liposol Maleate (Sabinsa Corporation) 2% water solution,
3) 5 g Olaplex® Bond Multiplier No 1, 2% water solution,
All the swatches are left on at room temperature for 7.30 minutes.
This treatment is repeated without rinsing, directly on the swatches, for 7.30 minutes (overall 15 minutes).
After the left on time, the swatches are rinsed with running water to eliminate the excess product.
as §2

[7] = Sensory properties of hair treated with a reducing treatment after coloring (Example 10); conditions: 5 g of 2% water solution, 2 x 7.30 minutes after bleaching, coloring and reducing treatment; washed with Sodium Laureth-2 sulfate 15% pH 7.5
Experimental: Four swatches of level 7 natural hair, standard weight and width, are bleached two times using the Davines Mask Hair Bleaching Powder mixed with an activator, hydrogen peroxide emulsion, Davines Activator 40 vol. in a 1:2 ratio.
The above described mixture is applied on single swatches in order to obtain a homogenous distribution of the product on the hair fibers.
The swatches are covered with an aluminum foil and left on for 50 minutes at room temperature. At the end of the left on period, the swatches are rinsed and carefully washed with a shampoo of the Davines Essential Hair Care SOLU line and dried. The entire process is repeated two times until to obtain the lightening level 11 according to Davines Color Manual.
The swatches as above treated are colored with Davines Mask with Vibrachrom 10.01 mixed with Davines Activator 20 vol. in a ratio 1:1.5 as disclosed in the Davines manual.
The coloration was applied to every swatch in an amount to obtain an homogeneous distribution of the product on all the hair fibers of the single swatch.
At the end of the coloration step, after rinsing with shampoo SOLU of the Essential Hair Care line of Davines and drying, the swatches are treated with 5 g of the Davines reducing formulation called Balance Curling System #1 and left on for 30 minutes at room temperature.
Then, the swatches are rinsed with water and treated as follows: […]

[8] = Color retention after reducing treatment (Example 11), evaluation by skilled technicians; set-up: species or system human; conditions: added to reducing composition and to neutralizing solution (1.8 ml per 100 ml) and applied afterwards as solution in 45 ml water, 7.5 minutes
Experimental: Five hair samples from a human subject having a standard weight and a width and level 7 are colored with a Davines Mask with Vibrachrom 3.51. The coloring formulation was applied mixed with Davines Activator 20 vol., hydrogen peroxide emulsion, according to Davines operating manual, in a 1:1.5 ratios. The color was carefully applied in a quantity sufficient to give a homogeneous color to all fibers of the swatches. The mixture was left on for 35 minutes at room temperature.
After that, the swatches were carefully rinsed with shampoo Davines SOLU of the Essential Hair Care line, in order to eliminate the excess color.
After the left on period, the swatches were treated with the following reducing compositions:
1) 100 ml Davines Balance Curling System #1
as §1
On the wet and towel dried swatches, 5 grams of the above described reducing formulations are applied per swatch, and then left on for 30 minutes.
After the left on period, the swatches are washed with hot running water for 1 minute and left 10 minutes towel dried on air without any treatment, in order to stabilize the treatment.
Five neutralizing solutions are prepared: […]
The swatches were evaluated from skilled technicians as follows:

[9] = Protection of hair from bleaching treatment (Example 4), sensorial analysis; conditions: 3.5 g of a 12% water solution added to bleaching powder + Activator 40 vol. mixture; 30 minutes, treatment done twice
Experimental: The following specific compositions were separately added to the mixture:
a) 3.5 g of a 12% Liposol maleate (Sabinsa Corporation) water solution;
b) 3.5 g of a 12% On Protection (7% Liposol maleate and 13% maleic) water solution;
e) 3.5 g of a 12% Olaplex® Bond Multiplier No 1 water solution;
The swatches were left on for 30 minutes at room temperature wrapped in an aluminum foil.
After that, the swatches were rinsed using cold running water and carefully washed using Davines SOLU shampoo of the Essential Hair Care line.
After the left on period, the swatches were rinsed using cold running water for removing the mixture and further treated with Davines SOLU shampoo of the Essential Hair Care line.
Then, 2.5 g of the conditioner MOMO of the Essential Hair Care line are applied; left on for one minute and subsequently rinsed using cold running water.
Finally, the swatches were towel dried, dried with an airdryer and combed using a fine-tooth comb.

[10] = Water solubility; format: physicochemical

| Compound | Tensile Strength N ([1]; 3.5 g 12% in water added to 20 g bleaching powder + 40 g Activator 20 vol., On Protection = 12% Liposol maleate + 8% maleic acid, five measurements, 6 cm hair, 0.5 mm/sec) [N] | resistance to hair breakage in comparison to other treatments (in words) ([1]; 3.5 g 12% in water added to bleaching mixture) | Tensile Strength N [2] [N] | limpidity / color intensity of the rinsing water (ranking) [3] | maintenance of the deviousness of the curls after repeated washings (ranking by skilled personnel) [4] | Tensile Strength N ([5]; 2.5 g as neutralizing solution after perm (maleic acid, liposol maleate 2%; Olaplex, On Protection 12% liposol maleate/8% maleic acid 10% water solution), 2 x 7.30 minutes, 40 washings) [N] | protection of the swatches (conclusion in words) ([5]; in comparison with Olaplex® Bond Multiplier No 1 and Davines Bouclè Biowaving System Extra Delicate Neutralizer) | softness and silkiness (ranking by skilled technicians) [6] | chromatic differences / color retention [7] | color retention after the reducing treatment (evaluated by skilled technicians) [8] | silkiness, smoothness and compactness of the swatches (sensorial analysis, ranking) [9] | solubility in water [10] |
| --- | --- | --- | --- | --- | --- | --- | --- | --- | --- | --- | --- | --- |
| CN(C)CCNC(=O)CCCCC1CCSS1.O=C(O)/C=C\C(=O)O (stereo not drawn) [Liposol maleate, 1,2-dithioane-3-pentanamide, N-(2-dimethylamino) ethyl salified with a mole of maleic acid] | 1.06 ± 0.13 | clearly show an improvement | 0.98 ± 0.11 | third | maintain the deviousness of the curls in a lower degree | 1.04 ± 0.16 | more protected | regard as preferred | do not present significant chromatic differences | more intensive and vibrating | better in relation to compactness, silkiness and smoothness |  |
| O=C(O)/C=C\C(=O)O [maleic acid, cis-butendioic acid] |  |  |  |  |  |  |  |  |  |  |  | water soluble |
